The results in this text go back to the METLIN SMRT retention time set (Domingo-Almenara et al. 2019).

The series in a line: gradient 5% acetonitrile 3 min, to 50% in 2 min, to 85% in 15 min, held 3 min, 100 µL/min. The conditions noted are these: column: Zorbax Extend-C18 2.1 x 50 mm; eluents: water / acetonitrile, 0.1% formic acid. A digest of the protocol:
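Over 3 months, pure standards in mixtures of ~100 molecules were run by HPLC coupled to a quadrupole time-of-flight mass spectrometer in positive and negative ionization mode. The column was a Zorbax Extend-C18 (2.1 × 50 mm, 1.8 μm) at 100 μL/min, eluted with water and acetonitrile each holding 0.1% formic acid, with 40 μL dead and 900 μL dwell volumes. Retention time was determined from adduct peaks chosen by software and checked manually.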
On to `CCc1ccc(NC(=O)N2CCCC2c2nc(-c3ccccc3OC)no2)cc1` (centres undefined), for which the RP-LC retention time came out at 976 s.

The molecule `Cc1ccc(C(=O)N(CCCN)[C@@H](c2nc3cc(Cl)ccc3c(=O)n2Cc2ccccc2)C(C)C)cc1` gave an RP-LC retention time of 990 s.

With `Cc1ccc(C)c(C(=O)N2CCC3(CC2)N=C(c2ccccc2)NO3)c1`, the RP-LC retention time is 855 s.

Take `Cc1cccc(Cn2nnc(C(=O)O)c2-c2cccnc2)c1`: the RP-LC retention time was determined as 669 s.

`O=C(NCCc1ccccc1)C1CCCN(C(=O)c2cccc(C(F)(F)F)c2)C1` (centres undefined): the RP-LC retention time was 903 s.

As for `COc1ccc(NC2=NS(=O)(=O)C(c3ccccc3)=C2C)cc1OC`, the RP-LC retention time turned out to be 802 s.

The molecule `Cn1ccc2c(cc(C(=O)NCc3ccc(C(F)(F)F)cc3)n2C)c1=O` registered an RP-LC retention time of 754 s.

Consider `CCN1C(=O)c2cccnc2Sc2cc(NC(=O)C3CCC3)ccc21`, for which the RP-LC retention time is 745 s.

In the case of `Cc1noc(-c2cc(=O)n(CC(=O)NCc3ccc4c(c3)OCO4)c3ccccc23)n1`, the RP-LC retention time stood at 802 s.

On to `COc1cc2c(cc1O)CCC1C2CC[C@@]2(C)C1CC[C@@H]2O` (some centres undefined), for which the RP-LC retention time is 836 s.

Regarding `COc1ccc(OC)c(Nc2c(-c3ccc(N(C)C)cc3)nc3cnccn23)c1`, the RP-LC retention time was 796 s.

Take `O=C(NCCCN1CCCC1)C1CN(C(=O)c2ccccc2)CC12CCCCC2` (centres undefined): the RP-LC retention time was 611 s.

For `CC(C)C[C@H](NC(=O)C1OC1C(=O)O)C(=O)NCCCCN=C(N)N` (some centres undefined), the RP-LC retention time was found to be 591 s.

Regarding `CCN(CC)C(=O)Cn1ccc2ccc(-c3nnc(C)o3)cc21`, the RP-LC retention time is 718 s.

Take `CCOc1ccccc1NC(=O)N1CCC2(CC1)NC(=O)c1cc(F)ccc1N2C`: the RP-LC retention time came to 817 s.

`CC(=O)Nc1ccc2c(c1)CN(C(=O)c1ccccc1C(F)(F)F)C(C(=O)N(C)C)C2` (centres undefined) showed an RP-LC retention time of 675 s.

`COc1cccc(N2C(=O)C3N=NN(c4ccc(C)c(F)c4)C3C2=O)c1` (centres undefined) came in with an RP-LC retention time of 1110 s.

In turn, `CCC(C)(C)C(=O)NC1CCN(C2=NS(=O)(=O)C(c3ccc(C)c(C)c3)=C2C)CC1` showed an RP-LC retention time of 950 s.

As for `COc1ccccc1CC(=O)Nc1cnc(C)nc1`, the RP-LC retention time stood at 664 s.

The molecule `Cc1cc(NS(=O)(=O)c2c(C)sc(C)c2-c2n[nH]c(C)c2C)ccc1Br` yielded an RP-LC retention time of 1180 s.

The molecule `Cc1ccccc1NC(=O)N1C[C@@H](F)C[C@H]1C(=O)N1CCc2ccccc2C1` showed an RP-LC retention time of 780 s.

With `CCOc1ccc(CNc2ccc3[nH]c(=O)[nH]c3c2)cc1`, the RP-LC retention time worked out at 605 s.

Molecule `CCn1cc(S(=O)(=O)Nc2cc(OC)cc(OC)c2)c2cccnc21` showed an RP-LC retention time of 817 s.

Molecule `CCc1ccc(C(=O)Nc2cc(-c3ccn[nH]3)sc2C)cc1` returned an RP-LC retention time of 1120 s.

Regarding `COC(=O)c1c(C)[nH]c(C(=O)N2CCC(CC(=O)NC(C)CCc3ccccc3)CC2)c1C` (centres undefined), the RP-LC retention time amounted to 880 s.

As for `Cc1ccccc1Nc1c(-c2ccccc2F)nc2ccccn12`, the RP-LC retention time is 707 s.

Take `CC(=O)N1CCc2cc(N3CC(C(=O)NCc4ccccc4C)CC3=O)ccc21` (centres undefined): the RP-LC retention time worked out at 707 s.

Molecule `Cc1ccc(-c2noc(CN3N=NC4C(=O)N(c5ccc(Br)cc5)C(=O)C43)n2)cc1C` (centres undefined) displayed an RP-LC retention time of 1130 s.

Regarding `O=C(CCc1c(-c2ccc(F)cc2)nc2ccccn12)Nc1cccc(F)c1`, the RP-LC retention time came out at 676 s.

In the case of `Cc1ccc(Cl)cc1NC(=O)CN1CCN(Cc2ccc(F)cc2)C(=O)C1=O`, the RP-LC retention time was 804 s.

`Cc1cc(C)cc(NC(=O)Cc2csc3nc(-c4ccccc4)cn23)c1`: the RP-LC retention time worked out at 880 s.

`O=S(=O)(NCC(O)c1ccc(C(F)(F)F)cc1)c1ccc2c(c1)OCCO2` (centres undefined) returned an RP-LC retention time of 817 s.

In the case of `COC(=O)c1cccc(NC(=O)N2C[C@H]3C[C@@H](C2)c2cccc(=O)n2C3)c1`, the RP-LC retention time worked out at 636 s.

Consider `Cc1ccc(-c2nc(-c3ccc(-c4noc(CNC(=O)c5ccco5)n4)cc3)cs2)s1`, for which the RP-LC retention time amounted to 1130 s.

`CCC(C(=O)Nc1nc2ccccc2[nH]1)n1cnc2ccccc2c1=O` (centres undefined) gave an RP-LC retention time of 652 s.

Molecule `CCn1c(C(=O)N2CCN(c3ccccn3)CC2)cc2c(-c3cccs3)nn(-c3ccccc3)c21` showed an RP-LC retention time of 776 s.

On to `COC(=O)c1cc2c(=O)n(CCc3ccc(OC)c(OC)c3)ccc2nc1C`, for which the RP-LC retention time was 769 s.

`Cc1nc2cc(-c3noc(Cc4cccc(Cl)c4)n3)ccc2o1` registered an RP-LC retention time of 1070 s.

As to `COc1cccc(C(=O)N(CN2CCCC2=O)c2cccc(C(F)(F)F)c2)c1`, the RP-LC retention time was found to be 757 s.

Turning to `Cc1ccc(Nc2nc(C)cc(N3CCN(C(=O)c4ccc(Br)o4)CC3)n2)cc1`, the RP-LC retention time was determined as 715 s.

Molecule `Cc1ccc(C)c(NC(=O)c2cn(-c3cc(-c4nc(C5CC5)no4)ccn3)cn2)c1` showed an RP-LC retention time of 1100 s.

With `Cc1ccc(NC(=O)N(C)CCc2noc(COc3ccccc3F)n2)cc1F`, the RP-LC retention time is 943 s.

With `CC(C)Cn1cc(CCNC(=O)Nc2cccc(Br)c2)c2cccnc21`, the RP-LC retention time stood at 904 s.

`CCCc1noc(-c2ccc3nnc(CC(=O)Nc4ccc(C)c(C)c4)n3c2)n1`: the RP-LC retention time is 940 s.

`COc1cccc(CNC(=O)c2c(C(F)(F)F)nn(C)c2C)c1` returned an RP-LC retention time of 722 s.

Turning to `Cc1ccc(NC(=O)C2CCN(C(=O)C3Sc4ccccc4NC3=O)CC2)cc1Cl` (centres undefined), the RP-LC retention time amounted to 878 s.

For `O=c1c(NCCc2ccccc2)nc2ccncc2n1Cc1ccccc1`, the RP-LC retention time came out at 742 s.

Consider `CNC(=O)Cc1csc(NC(=O)c2ccc(OCC(=O)C3CC3)cc2)n1`, for which the RP-LC retention time was 631 s.

Take `COc1cc(-c2nc3ccc(Cl)cn3c2Nc2ccc(C)cc2)ccc1O`: the RP-LC retention time is 730 s.

For `CC1OC1c1ccc(-c2ccc(C3OC3C)cc2)cc1` (centres undefined), the RP-LC retention time was 1140 s.

Molecule `COc1ccc(NC(=O)NCCC2CCN(S(=O)(=O)c3ccccc3)CC2)cc1` had an RP-LC retention time of 822 s.

In the case of `Cc1cc(-c2ccc3c(c2)CCN3C(=O)c2cccc(NC(=O)c3ccco3)c2)on1`, the RP-LC retention time worked out at 841 s.

For the molecule `Cn1cnc(S(=O)(=O)N2CCC(C(=O)Nc3ccc4c(c3)OCCO4)CC2)c1`, the RP-LC retention time was 663 s.

`O=C(Cn1cnc2ccccc21)N1CCN(C(=O)C2CC2c2cccs2)CC1` (centres undefined) showed an RP-LC retention time of 592 s.

`O=C(Cc1csc2nc(-c3ccccc3)cn12)Nc1cccc(F)c1` registered an RP-LC retention time of 805 s.

Take `N#Cc1cccc(S(=O)(=O)N2CCc3nc[nH]c3C2)c1`: the RP-LC retention time amounted to 592 s.

For the molecule `O=C(NCc1cscn1)C1CCN(S(=O)(=O)c2ccc(Br)s2)CC1`, the RP-LC retention time came out at 740 s.

With `CCOC(=O)c1sc2ccccc2c1S(=O)(=O)N1CCN(c2ccccn2)CC1`, the RP-LC retention time was determined as 794 s.

`CN(C)C(=O)c1cc2c(s1)CCC(C(=O)NC1CCCCCC1)C2` (centres undefined) returned an RP-LC retention time of 751 s.

On to `CCn1c(=O)c(C(=O)NCc2ccccc2OC)nc2cccnc21`, for which the RP-LC retention time stood at 800 s.

The molecule `CCN(CC)c1cc(C)nc2nc(CN3CCN(c4ccc(OC)cc4)CC3)nn12` registered an RP-LC retention time of 571 s.

For `COc1ccc(-n2c(=O)n(C)c(=O)c3cc(C(=O)Nc4cc(C)ccc4F)cnc32)cc1`, the RP-LC retention time stood at 912 s.

`COc1cc(NC(=O)NC2CCN(c3cc(N4CCOCC4)cnn3)C2)cc(OC)c1` (centres undefined): the RP-LC retention time amounted to 629 s.

`CSc1ccc(CNC(=O)c2ccc3ncnc(N4CCCC4)c3c2)cc1`: the RP-LC retention time is 669 s.

For `Cc1nc(N2CCCC2)c2c(C(=O)Nc3ccc(C)c(F)c3)c(C)oc2n1`, the RP-LC retention time was found to be 836 s.

`COc1cccc(-c2nc(C3CCN(S(=O)(=O)c4ccccc4)CC3)no2)c1` gave an RP-LC retention time of 1070 s.

Turning to `CCOc1ccc(NC(=O)Cn2cccc(-c3nc(-c4ccc(Br)cc4)no3)c2=O)cc1`, the RP-LC retention time worked out at 1020 s.

Molecule `O=C(Cc1c[nH]c2ccccc12)Nc1cc(-c2ccccn2)no1` yielded an RP-LC retention time of 754 s.

Regarding `CN(C)S(=O)(=O)c1ccc(-c2nnc(C(=O)NCc3ccc(C(F)(F)F)cc3)o2)cc1`, the RP-LC retention time was found to be 940 s.

In the case of `COCCC(=O)N1CCOc2ccc(N(C)C)cc2C1`, the RP-LC retention time worked out at 612 s.

On to `CC(=O)c1cccc(NC(=O)C(C)Oc2ccc(=O)n(-c3ccc(F)cc3)n2)c1` (centres undefined), for which the RP-LC retention time was determined as 688 s.

For the molecule `Cc1cccc2nnc(N3CCN(C(=O)c4ccc5c(c4)OCO5)CC3)n12`, the RP-LC retention time is 556 s.

For `CCN(CC)c1nc(C(=O)NCc2ccncc2)nc2nc(C)cc(C)c12`, the RP-LC retention time came to 511 s.

Consider `CCC(=O)N1CCCN(C2=NS(=O)(=O)C(c3ccc(F)cc3)=C2C)CC1`, for which the RP-LC retention time was determined as 698 s.

For `Cc1ccc(NC(=O)c2ccccc2[N+](=O)[O-])c(C(=O)c2ccccc2)c1`, the RP-LC retention time was found to be 955 s.

The molecule `CNC(=O)c1ccc(-c2nc3cc(NS(=O)(=O)c4cc(F)ccc4F)ccc3n2C)cc1` came in with an RP-LC retention time of 637 s.

Regarding `CCCn1cc(S(=O)(=O)Nc2cccc(Cl)c2)c2cccnc21`, the RP-LC retention time was 942 s.

As to `Cc1ccnc(N2CCC(C(=O)NCc3ccc4c(c3)OCO4)CC2)n1`, the RP-LC retention time amounted to 658 s.

With `COc1ccc(CN2CCc3nc(N4CCOCC4)ncc3C2)c(OC)c1`, the RP-LC retention time is 611 s.
